US20210254056A1, “IDENTIFICATION AND TARGETED MODULATION OF GENE SIGNALING NETWORKS” (CAMP4 THERAPEUTICS CORPORATION, priority 2017, published 2021)

Tests used:
[1] = test system: primary human hepatocytes; experiment: RNA-seq of primary human hepatocytes treated with 39 small molecules (pilot and validation); details: for significant modulation of gene expression: RNA-seq, p-value≤0.05, primary human hepatocytes, the modulated genes are listed in the block; for Number (#) of genes having significantly changed expression: pilot RNA-seq study of Example 2, significance: FPKM≥0.5, log 2(fold change)≥1, q-value ≤0.05
[2] = test system: primary human hepatocytes
[3] = test system: Hematopoietic progenitor CD34+ cells; experiment: qRT-PCR after inducible (pTRIPZ) shRNA knockdown in CD34+ cells; type: cell-based, human; details: for RQ, BAG1: relative quantification of BAG1 expression vs puro_shNT; for RQ, BAG1 / RQ, BAX / RQ, GATA1 / RQ, GATA2 / RQ, MDM2: pTRIPZ dox inducible shRNA, B-Actin internal control, Table 81; for RQ, BAX: relative quantification of BAX expression vs puro_shNT; for RQ, GATA1: relative quantification of GATA1 expression vs puro_shNT; for RQ, GATA2: relative quantification of GATA2 expression vs puro_shNT; for RQ, HBB: relative quantification of HBB expression vs puro_shNT; for RQ, HBB / RQ, RPL11 / RQ, RPS19 / RQ, p21 / RQ, p53: inducible pTRIPZ shRNA, CD34+ cells, B-ACTIN, Table 80; for RQ, MDM2: relative quantification of MDM2 expression vs puro_shNT; for RQ, RPL11: relative quantification of RPL11 expression vs puro_shNT; for RQ, RPS19: relative quantification of RPS19 expression vs puro_shNT; for RQ, p21: relative quantification of p21 expression vs puro_shNT; for RQ, p53: relative quantification of p53 expression vs puro_shNT
Procedure: Conditionally immortalized cord blood CD34+ cells were transduced with the shRNA lentiviruses using the retronectin-transduction protocol (Clontech). Puromycin selection was performed 24-48 hours post-transduction. Cells were counted to monitor cell viability. After 12 days, which allowed for a large biomass, knockdown efficiency was analyzed. qRT-PCR was used to identify changes in mRNA, and Western blot was used to determine levels of protein depletion.
For RNA extraction, 1×10^6 cells were harvested in 500 μL of TRIZOL reagent (Thermo Scientific), and incubated for 5 minutes at room temperature. Then, 100 μL of chloroform was added to the cells, and the mixture was vortexed and then centrifuged at 12,000× gravity for 15 minutes. The aqueous phase was transferred to fresh tubes and one volume of 70% ethanol was added. The TRIZOL Plus RNA purification Kit (Thermo Scientific) was used for the remaining extraction protocol according to the manufacturer's instructions. For the conversion of RNA to cDNA the High Capacity cDNA RT kit (Thermo Scientific) was used according to the manufacturer's instructions. The cDNA was analyzed with qRT-PCR to determine the fold change of knockdown cells using Taqman Fast PCR mix and Applied Biosystems probes (Thermo Scientific).
shRNAs targeting RPS19, p53, or RPL11 were delivered to normal cord blood erythroblast cells using either the pLKO (constitutive) and pTRIPZ (inducible) plasmids described in Example 1. The mRNA expression of the p53 pathway proteins; progenitor factor GATA2; and differentiation factors HBB and GATA1 were measured by qRT-PCR. Cells not transduced with a shRNA as well as cells transduced with a non-targeting shRNA served as controls.
Hematopoietic progenitor CD34^+ cells were transduced with the pTRIPZ inducible lentiviral plasmids containing p53_sh1, puro_shNT, RPL11_1, RPL11_2, RPS19_1, or RPS19_2.
The relative expression of GATA1, GATA2, MDM2, BAX, and BAG1 were also analyzed in cells transduced with a pTRIPZ dox inducible shRNA. B-Actin was used as an internal control.

hepatocytes [4] = experiment: RNA-seq of hepatocytes stimulated with the compounds of Table 68; details: hepatocytes, RNA-seq
hepatocytes [5] = experiment: qRT-PCR validation of the Example 12 RNA-seq results;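 also: Compound-treated versus DMSO control, target Ct normalized to GAPDH or β-actin reference (ΔΔCt method), positive values mean higher expression than DMSO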
[6] = test system: Early erythroblast progenitor cells derived from cord blood; experiment: Reversion of immortality after doxycycline withdrawal (qRT-PCR, cell size); type: cell-based, human
[7] = sample D2-Dox− (2 days after doxycycline withdrawn)
[8] = sample D3-Dox− (3 days after doxycycline withdrawn)
[9] = sample D4-Dox− (4 days after doxycycline withdrawn)
[10] = sample D5-Dox− (5 days after doxycycline withdrawn)
[11] = sample D2-dox+ (day 2, on doxycycline; reference)
[12] = sample D6-dox− (6 days after doxycycline withdrawn)

## CCc1nn(CCCN2CCN(c3cccc(Cl)c3)CC2)c(=O)n1CCOc1ccccc1 [MT-505, Nefazodone]
[1]
  significant modulation of gene expression: significantly (p-value≤0.05) modulate
  Number (#) of genes having significantly changed expression: 18
[2]
  Log2 fold changes in gene expression: CYP2C19: −0.03
  Log2 fold changes in gene expression: CYP3A4: 0.4

## COc1ccc(Cc2nccc3cc(OC)c(OC)cc23)cc1OC [MT-913, Papaverine]
[1]
  significant modulation of gene expression: significantly (p-value≤0.05) modulate
  Number (#) of genes having significantly changed expression: 12
[2]
  Log2 fold changes in gene expression: CYP2C19: 0.09
  Log2 fold changes in gene expression: CYP3A4: 0.06

## RPS19_1 (guide TAGAACCAGTTCTCATCGTA; chemistry not fully specified; listed as Homo sapiens)
[3]
  RQ, BAG1: 1.16
  RQ, BAX: 1.57
  RQ, GATA1: 0.67
  RQ, GATA2: 1.53
  RQ, HBB: 0.50
  RQ, MDM2: 2.72
  RQ, RPL11: 1.90
  RQ, RPS19: 0.47
  RQ, p21: 5.87
  RQ, p53: 1.66

## C[C@]12C=CC(=O)C=C1CC[C@@H]1[C@@H]2C(=O)C[C@@]2(C)[C@H]1CC[C@]2(O)C(=O)CO [MT-861, Prednisone]
Hepatocytes [4]; log 2 fold change in AMACR gene expression, Cuffdiff
  Cuffdiff log2fc, AMACR: −1.4
Hepatocytes [4]; log 2 fold change in AMACR gene expression, DESeq
  DESeq log2fc, AMACR: −1.24
Hepatocytes [4]; log 2 fold change in ARG1 gene expression, Cuffdiff
  Cuffdiff log2fc, ARG1: 1.48
Hepatocytes [4]; log 2 fold change in ARG1 gene expression, DESeq
  DESeq log2fc, ARG1: 1.59
Hepatocytes [4]; log 2 fold change in CA2 gene expression, Cuffdiff
  Cuffdiff log2fc, CA2: −1.05
Hepatocytes [4]; log 2 fold change in CA2 gene expression, DESeq
  DESeq log2fc, CA2: −0.95
Hepatocytes [4]; log 2 fold change in CIDEC gene expression, Cuffdiff
  Cuffdiff log2fc, CIDEC: 1.02
Hepatocytes [4]; log 2 fold change in CIDEC gene expression, DESeq
  DESeq log2fc, CIDEC: 1.19
Hepatocytes [4]; log 2 fold change in CPS1 gene expression, Cuffdiff
  Cuffdiff log2fc, CPS1: 2.14
Hepatocytes [4]; log 2 fold change in CPS1 gene expression, DESeq
  DESeq log2fc, CPS1: 2.17
Hepatocytes [4]; log 2 fold change in ENO3 gene expression, Cuffdiff
  Cuffdiff log2fc, ENO3: −1.24
Hepatocytes [4]; log 2 fold change in ENO3 gene expression, DESeq
  DESeq log2fc, ENO3: −1.03
Hepatocytes [4]; log 2 fold change in G6PC gene expression, Cuffdiff
  Cuffdiff log2fc, G6PC: 1.02
Hepatocytes [4]; log 2 fold change in G6PC gene expression, DESeq
  DESeq log2fc, G6PC: 1.03
Hepatocytes [4]; log 2 fold change in GYS2 gene expression, Cuffdiff
  Cuffdiff log2fc, GYS2: 2.21
Hepatocytes [4]; log 2 fold change in GYS2 gene expression, DESeq
  DESeq log2fc, GYS2: 2.49
Hepatocytes [4]; log 2 fold change in HGD gene expression, Cuffdiff
  Cuffdiff log2fc, HGD: 1.23
Hepatocytes [4]; log 2 fold change in HGD gene expression, DESeq
  DESeq log2fc, HGD: 1.31
Hepatocytes [4]; log 2 fold change in HOGA1 gene expression, Cuffdiff
  Cuffdiff log2fc, HOGA1: 1
Hepatocytes [4]; log 2 fold change in HOGA1 gene expression, DESeq
  DESeq log2fc, HOGA1: 1.04
Hepatocytes [4]; log 2 fold change in HPGD gene expression, Cuffdiff
  Cuffdiff log2fc, HPGD: 2.07
Hepatocytes [4]; log 2 fold change in HPGD gene expression, DESeq
  DESeq log2fc, HPGD: 2.29
Hepatocytes [4]; log 2 fold change in NCF2 gene expression, Cuffdiff
  Cuffdiff log2fc, NCF2: −1.71
Hepatocytes [4]; log 2 fold change in NCF2 gene expression, DESeq
  DESeq log2fc, NCF2: −1.6
Hepatocytes [4]; log 2 fold change in RMRP gene expression, Cuffdiff
  Cuffdiff log2fc, RMRP: −1.43
Hepatocytes [4]; log 2 fold change in RMRP gene expression, DESeq
  DESeq log2fc, RMRP: −0.78
Hepatocytes [4]; log 2 fold change in SLC37A4 gene expression, Cuffdiff
  Cuffdiff log2fc, SLC37A4: 1.16
Hepatocytes [4]; log 2 fold change in SLC37A4 gene expression, DESeq
  DESeq log2fc, SLC37A4: 1.18
Hepatocytes [4]; log 2 fold change in TAT gene expression, Cuffdiff
  Cuffdiff log2fc, TAT: 2.37
Hepatocytes [4]; log 2 fold change in TAT gene expression, DESeq
  DESeq log2fc, TAT: 2.48
Hepatocytes [4]; log 2 fold change in TDO2 gene expression, Cuffdiff
  Cuffdiff log2fc, TDO2: 1.05
Hepatocytes [4]; log 2 fold change in TDO2 gene expression, DESeq
  DESeq log2fc, TDO2: 1.21
Hepatocytes [5]; log 2 fold change in AMACR gene expression
  qRT-PCR log2fc, AMACR: −0.35
Hepatocytes [5]; log 2 fold change in ARG1 gene expression
  qRT-PCR log2fc, ARG1: 1.53
Hepatocytes [5]; log 2 fold change in CA2 gene expression
  qRT-PCR log2fc, CA2: −0.1
Hepatocytes [5]; log 2 fold change in CIDEC gene expression
  qRT-PCR log2fc, CIDEC: 1.1
Hepatocytes [5]; log 2 fold change in CPS1 gene expression
  qRT-PCR log2fc, CPS1: 0.61
Hepatocytes [5]; log 2 fold change in ENO3 gene expression
  qRT-PCR log2fc, ENO3: −0.03
Hepatocytes [5]; log 2 fold change in G6PC gene expression
  qRT-PCR log2fc, G6PC: 0.76
Hepatocytes [5]; log 2 fold change in GYS2 gene expression
  qRT-PCR log2fc, GYS2: 0.71
Hepatocytes [5]; log 2 fold change in HGD gene expression
  qRT-PCR log2fc, HGD: 0.5
Hepatocytes [5]; log 2 fold change in HOGA1 gene expression
  qRT-PCR log2fc, HOGA1: 1.47
Hepatocytes [5]; log 2 fold change in HPGD gene expression
  qRT-PCR log2fc, HPGD: 0.36
Hepatocytes [5]; log 2 fold change in NCF2 gene expression
  qRT-PCR log2fc, NCF2: −0.4
Hepatocytes [5]; log 2 fold change in RMRP gene expression
  qRT-PCR log2fc, RMRP: −0.33
Hepatocytes [5]; log 2 fold change in SLC37A4 gene expression
  qRT-PCR log2fc, SLC37A4: 0.99
Hepatocytes [5]; log 2 fold change in TAT gene expression
  qRT-PCR log2fc, TAT: 3.26
Hepatocytes [5]; log 2 fold change in TDO2 gene expression
  qRT-PCR log2fc, TDO2: 1.41

## C[C@H]1c2cccc(O)c2C(=O)C2=C(O)[C@]3(O)C(=O)C(C(N)=O)=C(O)[C@@H](N(C)C)[C@@H]3[C@@H](O)[C@@H]21 [Dox]
[6]; [7]
  RQ of ALAS2: 2.98
  RQ of BCLXL: 0.29
  RQ of HBB: 7.81
  RQ of MYC: 0.04
  RQ of RPS19: 0.28
  RQ of p21: 2.31
  RQ of p53: 0.40
[6]; [8]
  RQ of ALAS2: 1.44
  RQ of BCLXL: 0.11
  RQ of HBB: 5.57
  RQ of MYC: 0.03
  RQ of RPS19: 0.21
  RQ of p21: 1.05
  RQ of p53: 0.21
[6]; [9]
  RQ of ALAS2: 0.94
  RQ of BCLXL: 0.07
  RQ of HBB: 4.89
  RQ of MYC: 0.06
  RQ of RPS19: 0.28
  RQ of p21: 2.03
  RQ of p53: 0.22
[6]; [10]
  RQ of ALAS2: 0.40
  RQ of BCLXL: 0.04
  RQ of HBB: 2.13
  RQ of MYC: 0.06
  RQ of RPS19: 0.27
  RQ of p21: 1.61
  RQ of p53: 0.20

## C[C@H]1c2cccc(O)c2C(=O)C2=C(O)[C@]3(O)C(=O)C(C(N)=O)=C(O)[C@@H](N(C)C)[C@@H]3[C@@H](O)[C@@H]21 [dox]
[6]; [11]
  RQ of ALAS2: 1.00
  RQ of BCLXL: 1.00
  RQ of HBB: 1.00
  RQ of MYC: 1.00
  RQ of p21: 1.00
  RQ of p53: 1.00
[6]; sample D2-dox+ (day 2, on doxycycline; reference), B-ACTIN control
  RQ (relative quantification of expression) of RPS19: 1.00
[6]; [12]
  RQ of ALAS2: 0.17
  RQ of BCLXL: 0.03
  RQ of HBB: 0.57
  RQ of MYC: 0.03
  RQ of RPS19: 0.21
  RQ of p21: 1.14
  RQ of p53: 0.16

## RPS19_2 (guide CTTGACGGTATCCACCCATT; chemistry not fully specified; listed as Homo sapiens)
[3]
  RQ, BAG1: 1.08
  RQ, BAX: 1.29
  RQ, GATA1: 0.87
  RQ, GATA2: 1.23
  RQ, HBB: 0.55
  RQ, MDM2: 1.38
  RQ, RPL11: 1.46
  RQ, RPS19: 0.77
  RQ, p21: 1.73
  RQ, p53: 1.12
